Patent publication US7273880B2, “Selective NPY (Y5) antagonists” (H. Lunbeck A/S, priority 1999, dated 2007)
Where two headings read alike, the source gives them in different places.

Assays:
[1] = target: T1, human Y5 receptor (hNPY-5) (Homo sapiens, UniProt Q15761); experiment: Radioligand binding to membranes, cloned human Y5 receptor
T1 construct: expressed in transfected cells; host or cells: mouse fibroblast LM(tk-) cells, e.g. L-hY5-7 (ATCC CRL-11995)
T1 sequence (Q15761 1-445): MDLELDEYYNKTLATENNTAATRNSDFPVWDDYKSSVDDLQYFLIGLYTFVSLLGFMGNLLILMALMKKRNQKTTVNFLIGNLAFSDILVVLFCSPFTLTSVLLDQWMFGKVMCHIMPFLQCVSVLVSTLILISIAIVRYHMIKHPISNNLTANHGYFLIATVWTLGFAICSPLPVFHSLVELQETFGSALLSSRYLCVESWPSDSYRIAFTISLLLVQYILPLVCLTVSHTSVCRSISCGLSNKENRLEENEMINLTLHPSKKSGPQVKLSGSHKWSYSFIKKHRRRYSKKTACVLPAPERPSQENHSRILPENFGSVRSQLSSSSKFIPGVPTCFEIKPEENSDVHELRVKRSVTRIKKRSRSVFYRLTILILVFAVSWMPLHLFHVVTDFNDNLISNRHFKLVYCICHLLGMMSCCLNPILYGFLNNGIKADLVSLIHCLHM
Summary of the method: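 Competition binding on membranes from stably transfected 293 or LM(tk-) cells, with 0.08 nM ¹²⁵I-PYY in pH 7.4 HEPES buffer plus 0.1% BSA, 120 min at 30 °C, filtration and counting. Nonspecific binding defined by 300 nM human NPY, or 100 nM human PP for Y4; nonlinear regression.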

[2] = target: T2, human Y5 receptor (h NPY-5) (Homo sapiens, UniProt Q15761); experiment: Functional assay: radioimmunoassay of cAMP; assay type: cell-based; conditions: functional antagonism, forskolin-stimulated cAMP, cells stably transfected with human Y5
T2 construct: expressed in transfected cells; host or cells: mouse fibroblast LM(tk-) cells, e.g. L-hY5-7 (ATCC CRL-11995)
T2 sequence (Q15761 1-445): T1 sequence (Q15761 1-445)
Experimental: LM(tk-) cells stably transfected with the human Y5 receptor were routinely converted from an adherent monolayer to a viable suspension. Adherent cells were harvested with trypsin at the point of confluence, resuspended in a minimal volume of complete DMEM for a cell count, and further diluted to a concentration of 10^6 cells/ml in suspension media (10% bovine calf serum, 10% 10× Medium 199 (Gibco), 9 mM NaHCO3, 25 mM glucose, 2 mM L-glutamine, 100 units/ml penicillin/100 μg/ml streptomycin, and 0.05% methyl cellulose). The cell suspension was maintained in a shaking incubator at 37° C., 5% CO2 for 24 hours. Membranes harvested from cells grown in this manner may be stored as large, uniform batches in liquid nitrogen. Alternatively, cells may be returned to adherent cell culture in complete DMEM by distribution into 96-well microtiter plates coated with poly-D-lysine (0.01 mg/ml) followed by incubation at 37° C., 5% CO2 for 24 hours. Cells prepared in this manner yielded a robust and reliable NPY-dependent response in cAMP radio-immunoassays as further described hereinbelow.
Stably transfected cells were seeded into 96-well microtiter plates and cultured until confluent. To reduce the potential for receptor desensitization, the serum component of the media was reduced to 1.5% for 4 to 16 hours before the assay. Cells were washed in Hank's buffered saline, or HBS (150 mM NaCl, 20 mM HEPES, 1 mM CaCl2, 5 mM KCl, 1 mM MgCl2, and 10 mM glucose) supplemented with 0.1% bovine serum albumin plus 5 mM theophylline and pre-equilibrated in the same solution for 20 min at 37° C. in 5% CO2. Cells were then incubated 5 min with 10 μM forskolin and various concentrations of receptor-selective ligands. The assay was terminated by the removal of HBS and acidification of the cells with 100 mM HCl. Intracellular cAMP was extracted and quantified with a modified version of a magnetic bead-based radioimmunoassay (Advanced Magnetics, Cambridge, Mass.). The final antigen/antibody complex was separated from free ^125I-cAMP by vacuum filtration through a PVDF filter in a microtiter plate (Millipore, Bedford, Mass.). Filters were punched and counted for ^125I in a Packard gamma counter. Binding data were analyzed using nonlinear regression and statistical techniques available in the GraphPAD Prism package (San Diego, Calif.).

[3] = target: hNPY-1,2,4 (human Y1, Y2, Y4 receptors); experiment: Radioligand binding to membranes, cloned human Y1, Y2 and Y4 receptors; conditions: one bound given for all three
Experimental: Binding of the compounds of the present invention to human Y1, Y2, Y4, and Y5 receptors was evaluated using stably transfected 293 or LM(tk-) cells as described above. Stably transfected cell lines which may be used for binding assays include, for example, for the human Y1 receptor, 293-hY1-5 (deposited Jun. 4, 1996, under ATCC Accession No. CRL-12121), for the human Y2 receptor, 293-hY2-10 (deposited Jan. 27, 1994, under ATCC Accession No. CRL-11537), for the human Y4 receptor, L-hY4-3 (deposited Jan. 11, 1995, under ATCC Accession No. CRL-11779), and for human Y5 receptor, L-hY5-7 (deposited Nov. 15, 1995, under ATCC Accession No. CRL-11995). These cell lines were deposited with the American Type Culture Collection (ATCC), 10801 University Blvd., Manassas, Va. 20110-2209, U.S.A. under the provisions of the Budapest Treaty for the International Recognition of the Deposit of Microorganisms for the Purposes of Patent Procedure.
Membranes were harvested from COS-7 cells 48 hours after transient transfection. Adherent cells were washed twice in ice-cold phosphate buffered saline (138 mM NaCl, 8.1 mM Na2HPO4, 2.5 mM KCl, 1.2 mM KH2PO4, 0.9 mM CaCl2, 0.5 mM MgCl2, pH 7.4) and lysed by sonication in ice-cold sonication buffer (20 mM Tris-HCl, 5 mM EDTA, pH 7.7). Large particles and debris were cleared by low speed centrifugation (200×g, 5 min, 4° C.). Membranes were collected from the supernatant fraction by centrifugation (32,000×g, 18 min, 4° C.), washed with ice-cold hypotonic buffer, and collected again by centrifugation (32,000×g, 18 min, 4° C.). The final membrane pellet was resuspended by sonication into a small volume of ice-cold binding buffer (˜1 ml for every 5 plates: 10 mM NaCl, 20 mM HEPES, 0.22 mM KH2PO4, 1.26 mM CaCl2, 0.81 mM MgSO4, pH 7.4). Protein concentration was measured by the Bradford method (Bradford, 1976) using Bio-Rad Reagent, with bovine serum albumin as a standard. Membranes were held on ice for up to one hour and used fresh, or flash-frozen and stored in liquid nitrogen.
Membranes were prepared similarly from 293, LM(tk-), and NIH-3T3 cells. To prepare membranes from baculovirus infected cells, 2×10^7 Sf21 cells were grown in 150 mm tissue culture dishes and infected with a high-titer stock of hY5BB3. Cells were incubated for 2-4 days at 27° C., no CO2 before harvesting and membrane preparation as described above.
Membrane suspensions were diluted in binding buffer supplemented with 0.1% bovine serum albumin to yield an optimal membrane protein concentration so that ^125I-PYY (or alternative radioligand such as ^125I-NPY, ^125I-PYY3-36, or ^125I-[Leu^31Pro^34]PYY) bound by membranes in the assay was less than 10% of ^125I-PYY (or alternative radioligand) delivered to the sample (100,000 dpm/sample=0.08 nM for competition binding assays). ^125I-PYY (or alternative radioligand) and peptide competitors were also diluted to desired concentrations in supplemented binding buffer. Individual samples were then prepared in 96-well polypropylene microtiter plates by mixing 125I-PYY (25 μL) (or alternative radioligand), competing peptides or supplemented binding buffer (25 μL), and finally, membrane suspensions (200 μL). Samples were incubated in a 30° C. water bath with constant shaking for 120 min. Incubations were terminated by filtration over Whatman GF/C filters (pre-coated with 1% polyethyleneimine and air-dried before use), followed by washing with 5 mL of ice-cold binding buffer. Filter-trapped membranes were impregnated with MeltiLex solid scintillant (Wallac, Turku, Finland) and counted for ^125I in a Wallac Beta-Plate Reader. Alternatively, incubations were carried out in GF/C filter plates (pre-coated with 1% polyethyleneimine and air-dried before use), followed by vacuum filtration and three washes of 300 μL of ice-cold binding buffer. 50 μL of UltimaGold (Packard) scintillant were added and counted for ^125I in a Wallac MicroBeta Trilux. […]

[4] = binding Ki as repeated in Table 4, read-out: Ki (h NPY-5)
[5] = cloned human NPY Y5 receptor, radioligand competition binding, Tables 1-3, read-out: Ki, nM hNPY-5

| Structure (SMILES) | Ki [1, 4] [nM] | Ki [1, 5] [nM] | Kb [2] [nM] | Ki [3] [nM] | melting point [°C] |
| --- | --- | --- | --- | --- | --- |
| COc1ccc(C)cc1S(=O)(=O)NCCCCCNc1nc2c(s1)CCCc1ccc(F)cc1-2 [Example 15, 1-Aza-9-fluoro-4,5-dihydro-2-(5-(2-methoxy-5-methyl-phenyl)sulfonylamino)pentylamino-3-thia-benzo[e]-azulene] | 3.2 | 3.2 | 2.51 | – | – |
| O=S(=O)(NCCCCCNc1nc2c(s1)CCCc1ccc(F)cc1-2)c1cccs1 [Example 19, 1-Aza-9-fluoro-4,5-dihydro-2-(5-(2-thienyl)-sulfonylamino)-pentylamino-3-thia-benzo[e]azulene] | – | 5 | – | > 10000 | 152 to 154 |
| COCC(=O)NC[C@H]1CC[C@H](Nc2nc3c(s2)CCCc2ccc(F)cc2-3)CC1 [Example 80, N1-({4-[(9-fluoro-5,6-dihydro-4H-benzo[6,7]-cyclohepta-[d][1,3]thiazol-2-yl)amino]cyclohexyl}-methyl)-2-methoxyacetamide] | 32.9 | 33 | 39.8 | – | – |
| CCN(CC)S(=O)(=O)N[C@H]1CC[C@H](Nc2nc3c(s2)CCCc2ccc(F)cc2-3)CC1 [Example 35, trans-1-Aza-9-fluoro-4,5-dihydro-2-(4-diethylamino-sulfonylamino)cyclohexylamino-3-thia-benzo[e]azulene] | – | 6.5 | – | > 10000 | 172 to 174 |
| CS(=O)(=O)NC[C@H]1CC[C@H](Nc2nc3c(s2)CCOc2ccccc2-3)CC1 [Example 47, trans-N2-(4-Methylsulfonylaminomethyl)cyclohexyl-4,5-dihydro-benzo[2,3]oxepino[4,5-d][1,3]thiazol-2-amine] | – | 22 | – | > 10000 | 67 to 69 |
| CS(=O)(=O)NCCCCC(=O)Nc1nc2c(s1)CCCc1ccc(F)cc1-2 [Example 45, N1-(9-fluoro-5,6-dihydro-4H-benzo[6,7]cyclohepta-[d][1,3]thiazol-2-yl)-5-[(methylsulfonyl)amino]-pentanamide] | – | 65 | – | > 10000 | 145 to 147 |
| Cn1cnc(S(=O)(=O)NCCCCCNc2nc3c(s2)CCCc2ccc(F)cc2-3)c1 [Example 23, 1-Aza-9-fluoro-4,5-dihydro-2-(5-(1-methylimidazol-4-yl)sulfonylamino)pentylamino-3-thia-benzo[e]azulene] | – | 15.5 | – | > 10000 | 50 to 53 |
| O=S(=O)(CC(F)(F)F)N[C@H]1CC[C@H](Nc2nc3c(s2)CCCc2ccc(F)cc2-3)CC1 [Example 38, trans-1-Aza-9-fluoro-4,5-dihydro-2-(4-(2,2,2-trifluoro-ethyl)sulfonylamino)cyclohexylamino-3-thia-benzo [e]azulene] | – | 15.8 | – | > 10000 | 89 to 91 |
| COC[C@@H]1CCCN1S(=O)(=O)c1ccc(Nc2nc3c(s2)CCCc2ccc(F)cc2-3)cc1 [Example 9, 1-Aza-9-fluoro-4,5-dihydro-2-(4-((2(S)-methoxy-methyl)-pyrrolidine-1-yl)sulfonyl)phenylamino-3-thia-benzo[e]azulene] | – | 15.4 | – | > 10000 | 186 to 188 |
| CS(=O)(=O)NCCCCNc1nc2c(s1)CCCc1ccc(F)cc1-2 [Example 5, 1-Aza-9-fluoro-4,5-dihydro-2-(4-(methane-sulfonylamino)-butyl)amino-3-thia-benzo[e]azulene] | – | 19.8 | – | > 10000 | – |
| Cn1cnc(S(=O)(=O)NC[C@H]2CC[C@H](Nc3nc4c(s3)CCCc3ccc(F)cc3-4)CC2)c1 [Example 32, trans-1-Aza-9-fluoro-4,5-dihydro-2-{4-(1-methylimidazolyl-4-yl)sulfonylaminomethyl}cyclohexyl-amino-3-thia-benzo[e]azulene] | – | 2.9 | – | > 10000 | – |
| NS(=O)(=O)NC[C@H]1CC[C@H](Nc2nc3c(s2)CCOc2ccccc2-3)CC1 [Example 46, trans-N2-(4-Aminosulfonylaminomethyl)cyclohexyl-4,5-dihydro-benzo[2,3]oxepino[4,5-d][1,3]thiazol-2-amine] | – | 34 | – | > 10000 | 170 to 173 |
| O=S(=O)(N[C@H]1CC[C@H](Nc2nc3c(s2)CCCc2ccc(F)cc2-3)CC1)c1cccs1 [Example 37, trans-1-Aza-9-fluoro-4,5-dihydro-2-(4-(2-thienyl)-sulfonyl-amino)cyclohexylamino-3-thia-benzo[e]azulene] | – | 7.4 | – | > 10000 | 230 to 231 |
